In PubChem BioAssay (NCI):
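48-hour exposure; five concentrations; linearly interpolated endpoints. Definition used: TGI = concentration required for complete inhibition of growth.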

How the values were obtained:
Assay in all cases: DTP human tumour cell line panel, 48 h
SN12C renal = test system: SN12C renal
A549 NSCLC = test system: A549 NSCLC
TK-10 renal = test system: TK-10 renal
SF-295 CNS = test system: SF-295 CNS
NCI-H522 lung = test system: NCI-H522 lung
SF-268 CNS = test system: SF-268 CNS
U251 CNS = test system: U251 CNS
COLO 205 colon = test system: COLO 205 colon
M19-MEL melanoma = test system: M19-MEL melanoma
KM20L2 colon = test system: KM20L2 colon
SK-MEL-5 melanoma = test system: SK-MEL-5 melanoma
RXF 393 renal = test system: RXF 393 renal
786-0 renal = test system: 786-0 renal
KM12 colon = test system: KM12 colon
HOP-62 NSCLC = test system: HOP-62 NSCLC
UO-31 renal = test system: UO-31 renal
XF 498 CNS = test system: XF 498 CNS
SF-539 CNS = test system: SF-539 CNS
SK-MEL-2 melanoma = test system: SK-MEL-2 melanoma
NCI-H460 lung = test system: NCI-H460 lung
DLD-1 colon = test system: DLD-1 colon
NCI-H226 lung = test system: NCI-H226 lung
SNB-78 CNS = test system: SNB-78 CNS
NCI-H23 lung = test system: NCI-H23 lung
SK-MEL-28 melanoma = test system: SK-MEL-28 melanoma
SNB-19 CNS = test system: SNB-19 CNS
SR leukemia = test system: SR leukemia
SNB-75 CNS = test system: SNB-75 CNS
K-562 leukemia = test system: K-562 leukemia
OVCAR-5 ovarian = test system: OVCAR-5 ovarian
DMS 114 small cell lung = test system: DMS 114 small cell lung
MOLT-4 leukemia = test system: MOLT-4 leukemia
HCC-2998 colon = test system: HCC-2998 colon
HL-60(TB) leukemia = test system: HL-60(TB) leukemia
LXFL 529 NSCLC = test system: LXFL 529 NSCLC
HOP-92 NSCLC = test system: HOP-92 NSCLC
CAKI-1 renal = test system: CAKI-1 renal
ACHN renal = test system: ACHN renal
RXF-631 renal = test system: RXF-631 renal
SK-OV-3 ovarian = test system: SK-OV-3 ovarian
M14 melanoma = test system: M14 melanoma
HT29 colon = test system: HT29 colon
UACC-257 melanoma = test system: UACC-257 melanoma
MALME-3M melanoma = test system: MALME-3M melanoma
A498 renal = test system: A498 renal
OVCAR-3 ovarian = test system: OVCAR-3 ovarian
IGROV1 ovarian = test system: IGROV1 ovarian
UACC-62 melanoma = test system: UACC-62 melanoma
HCT-116 colon = test system: HCT-116 colon
OVCAR-8 ovarian = test system: OVCAR-8 ovarian
HOP-18 NSCLC = test system: HOP-18 NSCLC
EKVX NSCLC = test system: EKVX NSCLC
LOX IMVI melanoma = test system: LOX IMVI melanoma
OVCAR-4 ovarian = test system: OVCAR-4 ovarian
DMS 273 small cell lung = test system: DMS 273 small cell lung
CCRF-CEM leukemia = test system: CCRF-CEM leukemia

`CC#C[I+]c1ccccc1` was tested, and the TGI (SN12C renal) was 25.6 µM, the TGI (A549 NSCLC) was over 100 µM and the TGI (TK-10 renal) was 30.4 µM. For the same molecule, the TGI (SF-295 CNS) was over 100 µM, the TGI (NCI-H522 lung) was 13.1 µM and the TGI (SF-268 CNS) was 35.1 µM. It also gave a TGI (U251 CNS) of 29.1 µM, a TGI (COLO 205 colon) of 26 µM and a TGI (M19-MEL melanoma) of 45 µM. It also gave a TGI (KM20L2 colon) of 36.1 µM, a TGI (SK-MEL-5 melanoma) of 48.5 µM and a TGI (RXF 393 renal) of 36.9 µM. The TGI (786-0 renal) was 28.4 µM, the TGI (KM12 colon) was 40.1 µM and the TGI (HOP-62 NSCLC) was 96.6 µM. The TGI (UO-31 renal) was 97.5 µM, the TGI (XF 498 CNS) was 33.5 µM and the TGI (SF-539 CNS) was 35.1 µM. For the same molecule, the TGI (SK-MEL-2 melanoma) was over 100 µM, the TGI (NCI-H460 lung) was over 100 µM and the TGI (DLD-1 colon) was 30.2 µM. The TGI (NCI-H226 lung) was over 100 µM, the TGI (SNB-78 CNS) was 54.5 µM and the TGI (NCI-H23 lung) was 39.7 µM. For the same molecule, the TGI (SK-MEL-28 melanoma) was 50.4 µM, the TGI (SNB-19 CNS) was over 100 µM and the TGI (SR leukemia) was 36.5 µM. It also gave a TGI (SNB-75 CNS) of over 100 µM, a TGI (K-562 leukemia) of 33.3 µM and a TGI (OVCAR-5 ovarian) of 77.8 µM. It also gave a TGI (DMS 114 small cell lung) of 26.3 µM, a TGI (MOLT-4 leukemia) of 42.2 µM and a TGI (HCC-2998 colon) of 56.6 µM. The TGI (HL-60(TB) leukemia) was 33.8 µM, the TGI (LXFL 529 NSCLC) was 27.1 µM and the TGI (HOP-92 NSCLC) was 30.8 µM. It also gave a TGI (CAKI-1 renal) of 27.9 µM, a TGI (ACHN renal) of 32 µM and a TGI (RXF-631 renal) of over 100 µM. The TGI (SK-OV-3 ovarian) was 99.1 µM, the TGI (M14 melanoma) was 37.1 µM and the TGI (HT29 colon) was 34.5 µM. It also gave a TGI (UACC-257 melanoma) of 51.7 µM, a TGI (MALME-3M melanoma) of 38.2 µM and a TGI (A498 renal) of over 100 µM. The TGI (OVCAR-3 ovarian) was 33.9 µM, the TGI (IGROV1 ovarian) was over 100 µM and the TGI (UACC-62 melanoma) was 57.6 µM. The TGI (HCT-116 colon) was 35.3 µM, the TGI (OVCAR-8 ovarian) was 31.2 µM and the TGI (HOP-18 NSCLC) was 34.4 µM. The TGI (EKVX NSCLC) was 36.7 µM, the TGI (LOX IMVI melanoma) was 28.2 µM and the TGI (OVCAR-4 ovarian) was 46.3 µM. For the same molecule, the TGI (DMS 273 small cell lung) was 27.8 µM and the TGI (CCRF-CEM leukemia) was 18.7 µM.
